The structures appear in SMILES notation.

These results are taken from patent US20250333394A1, “Tiparp Inhibitor Compounds” (AbbVie Inc., priority 2024, published 2025).

One assay concerns the target TIPARP GST-(TEV) (Homo sapiens (Human), UniProt Q7Z3E1). Nature of the assay: TR-FRET binding assay, TIPARP. As to conditions: for IC50: TR-FRET, Probe 1, 2 hours incubation; for PARP1/TIPARP IC50 Ratio: ratio of PARP1 GST IC50 to TIPARP GST-(TEV) IC50. An excerpt: The full-length cDNA encoding the human TIPARP (NP_001171647.1, UniProtKB-Q7Z3E1) of 657 amino acids was the template to generate the expression construct. […] The TIPARP fusion protein includes GST, glutathione S-transferase, a 26 kDa protein whose DNA sequence is frequently integrated into expression vectors for production of recombinant proteins. A […], was cloned into vector pFastBacTM 1 (Thermo Fisher Scientific) with an N-terminal GST tag followed by a TEV protease site to produce the TIPARP fusion protein, TIPARP GST-(TEV). TR-FRET assays were used to measure the binding of compounds to TIPARP and PARP1, and to characterize biochemical selectivity. Compound stock solutions (10 mM) were serially diluted in 3-fold increments in dimethyl sulfoxide (DMSO). Diluted compounds were dispensed (30 nL) into white ProxiPlate-384-well plates (PerkinElmer, Waltham, MA, USA) using an ECHO® 550 acoustic Labcyte dispenser (Beckman-Coulter Life Sciences, Indianapolis, IN, USA) to achieve a final starting concentration of 30 μM to 0.5 nM in the assay. This was followed by addition of 5 μL of 2× protein/probe mix (Table 2) made in assay buffer (Tris-HCl 50 mM pH 8.0; 5 mM MgCl2; 5 μM ZnCl2; 1 mM DTT (dithiothreitol); 0.15% BSA (bovine serum albumin) (w/v); and 0.01% TritonX-100 (w/v)) at final concentrations listed in Table 2. Subsequently, 5 μL of 2× antibody (Tb-labeled anti-GST antibody, Thermo Fisher Scientific, Waltham, MA, USA) in HEPES buffered saline was added to each well at a final concentration of 1 nM. The samples were then incubated for 2 hours under ambient conditions. Fluorescence was measured and TR-FR ET ratios were determined on an EnVision multimode plate reader (PerkinElmer) using a 520 nanometer (nm) excitation wavelength and collecting fluorescence emission at 495 nm. […] [table]

In a further assay the target is PARP1 GST (Homo sapiens (Human), UniProt P09874). The assay is described as follows: TR-FRET binding assay, PARP1. To be noted: Probe 2, 2 hours incubation. On the procedure:
TR-FRET assays were used to measure the binding of compounds to TIPARP and PARP1, and to characterize biochemical selectivity. Compound stock solutions (10 mM) were serially diluted in 3-fold increments in dimethyl sulfoxide (DMSO). Diluted compounds were dispensed (30 nL) into white ProxiPlate-384-well plates (PerkinElmer, Waltham, MA, USA) using an ECHO® 550 acoustic Labcyte dispenser (Beckman-Coulter Life Sciences, Indianapolis, IN, USA) to achieve a final starting concentration of 30 μM to 0.5 nM in the assay. This was followed by addition of 5 μL of 2× protein/probe mix (Table 2) made in assay buffer (Tris-HCl 50 mM pH 8.0; 5 mM MgCl2; 5 μM ZnCl2; 1 mM DTT (dithiothreitol); 0.15% BSA (bovine serum albumin) (w/v); and 0.01% TritonX-100 (w/v)) at final concentrations listed in Table 2. Subsequently, 5 μL of 2× antibody (Tb-labeled anti-GST antibody, Thermo Fisher Scientific, Waltham, MA, USA) in HEPES buffered saline was added to each well at a final concentration of 1 nM. The samples were then incubated for 2 hours under ambient conditions. Fluorescence was measured and TR-FR ET ratios were determined on an EnVision multimode plate reader (PerkinElmer) using a 520 nanometer (nm) excitation wavelength and collecting fluorescence emission at 495 nm.
For orientation: In TR-FRET formats the signal depends on donor and acceptor labels being close together.

The next assay deals with NCI-H1373 cells. The assay is described as follows: NCI-H1373 CellTiter-Glo cell assay for TIPARP inhibition. The assay is classed as cell-based, human. As to conditions: Homo sapiens, NCI-H1373, 144 h; 6 days, 100 nM 10-Cl-BBQ in medium; read-out: NCI-H1373 CTG EC50. As to the method:
The NCI-H1373 CellTiter-Glo® assay was used to determine cell numbers after TIPARP inhibition-induced cell cycle arrest, and enabled screening of compounds for cellular TIPARP inhibition potency.
Compound stock solutions (10 mM) were serially diluted in 3-fold increments in dimethyl sulfoxide. Sample aliquots (120 nL) were dispensed into Corning® 384-well Flat Clear Bottom White Polystyrene TC-treated Microplates (Corning Life Sciences, Corning, NY, USA) using an ECHO® 550 acoustic Labcyte dispenser (Beckman-Coulter Life Sciences, Indianapolis, IN, USA) to achieve final concentrations between 30 μM and 0.5 nM in the assay. This was followed by the addition of 40 μL of 1000 NCI-H1373 cells (ATCC®, Manassas, VA, USA) in complete growth medium RPMI 1640 growth medium (Thermo Fisher Scientific, Waltham, MA, USA) supplemented with 20 mg/L L-glutamate, 25 mM HEPES (4-(2-hydroxyethyl)-1-piperazineethanesulfonic acid), 10% (v/v) heat inactivated FBS (fetal bovine serum), 1% (w/v) penicillin-streptomycin, and 100 nM 10-Cl-BBQ (10-chloro-7H-benzimidazo[2,1-a]benz[de]isoquinolin-7-one, (Tocris, Minneapolis, MN, USA). Duplicate cell plates with 40 μL cells/well along with various concentrations of compounds were kept in Nunc™ Square BioAssay Dishes (Thermo Fisher Scientific) at 98% relative humidity in a 5% C02 incubator at 37° C. for 6 days. On day 7, plates were moved to ambient lab conditions for 10 minutes until the temperature equilibrated. Following equilibration, CellTiter-Glo® Luminescent Cell Viability Assay reagent (Promega™, Madison, WI, USA) was added (15 μL) to each well of the plates. After a 20 minutes incubation, luminescence was detected using a ViewLux™ microplate imager (PerkinElmer, Waltham, MA, USA). Data analysis was performed using GraphPad Prism (Dotmatics, Boston, MA, USA).
On the technique in general: In ATP-based viability assays light output follows the ATP content of the culture.

The test system of another assay is DLD-1 parent cells. The assay is described as follows: CellTiter-Glo DLD-1 parent cell assay. The class given is cell-based. As to conditions: Homo sapiens, 144 h, 6 days, read-out: DLD-1 CTG EC50. The source says: (§1) The DLD-1 BRCA2 (−/−) CellTiter-Glo® assay measured the synthetic lethality of PARP1/2 inhibitors and was used as a surrogate to allow measurement of activity of both PARP1 and PARP2 in cells. If PARP1 and PARP2 are inhibited and are trapped onto chromatin during DNA replication, there is replication fork stalling and accumulation of double strand breaks. In BR CA wild-type cells, the resulting double strand DNA breaks are repaired via homologous recombination. In cells with mutation of BRCA1 or BRCA2, homologous recombination repair of DNA double strand breaks is defective, and cell death occurs after PARP1/2 inhibitor treatment (Lord C J, Ashworth A. PARP inhibitors: synthetic lethality in the clinic. Science. 2017 Mar. 17; 355(6330):1152-1158). Testing compounds in viability assays with the DLD-1-BR CA 2 (−/−) and DLD-1 parent cell enabled assessment on PARP1/2-dependent (cytotoxicity in the BRCA2 (−/−) cells only) vs. non-selective cytotoxicity in both cell lines.
(§2) Compound stock solutions (10 mM) were serially diluted in 3-fold increments in dimethyl sulfoxide (DMSO). Sample aliquots (120 nL) were dispensed into Corning® 384-well Flat Clear Bottom White Polystyrene TC-treated Microplates (Corning Life Sciences, Corning, NY, USA) using an ECHO® 550 acoustic Labcyte dispenser (Beckman-Coulter Life Sciences, Indianapolis, IN, USA) to achieve concentrations between 30 μM and 0.5 nM in the assay. In the assay, 40 μL of 500 DLD-1 parent cells (HORIZON® Therapeutics, Deerfield, IL, USA) or 40 μL of 1200 DLD-1-BRCA2 (−/−) cells (HORIZON Therapeutics) in complete growth medium containing RPMI 1640 growth medium (ThermoFisher Scientific, Waltham, MA, USA) supplemented with 20 mg/L L-glutamate, 25 mM HEPES (4-(2-hydroxyethyl)-1-piperazineethanesulfonic acid), 10% (v/v) heat inactivated FBS (fetal bovine serum), and 1% (w/v) Penicillin-Streptomycin were added.
(§3) Duplicate cell plates with 40 μL cells/well along with various concentrations of compounds were kept in Nunc™ Square BioAssay Dishes (Thermo Fisher Scientific) at 98% relative humidity in a 5% CO2 incubator at 37° C. for 6 days. On day 7, plates were moved to ambient lab conditions for 10 minutes until the temperature equilibrated. Following equilibration, CellTiter-Glo® Luminescent Cell Viability Assay reagent (Promega™, Madison, WI, USA) was added (15 μL) to each well of the plates. After a 20 minutes incubation, luminescence was detected using a ViewLux™ microplate imager (PerkinElmer, Waltham, MA, USA). Data analysis was performed using GraphPad Prism (Dotmatics, Boston, MA, USA).

Another assay concerns DLD-1 BRCA2 (−/−) cells. The assay is described as follows: CellTiter-Glo DLD-1 BRCA2 (−/−) cell assay for PARP1/2 inhibition. The assay is classed as cell-based. To be noted: Homo sapiens, 144 h, 6 days, read-out: DLD-1 BRCA2 (−/−) CTG EC50.
Text: as §1, §2, §3

PARP1 GST, sequence (P09874 whole entry): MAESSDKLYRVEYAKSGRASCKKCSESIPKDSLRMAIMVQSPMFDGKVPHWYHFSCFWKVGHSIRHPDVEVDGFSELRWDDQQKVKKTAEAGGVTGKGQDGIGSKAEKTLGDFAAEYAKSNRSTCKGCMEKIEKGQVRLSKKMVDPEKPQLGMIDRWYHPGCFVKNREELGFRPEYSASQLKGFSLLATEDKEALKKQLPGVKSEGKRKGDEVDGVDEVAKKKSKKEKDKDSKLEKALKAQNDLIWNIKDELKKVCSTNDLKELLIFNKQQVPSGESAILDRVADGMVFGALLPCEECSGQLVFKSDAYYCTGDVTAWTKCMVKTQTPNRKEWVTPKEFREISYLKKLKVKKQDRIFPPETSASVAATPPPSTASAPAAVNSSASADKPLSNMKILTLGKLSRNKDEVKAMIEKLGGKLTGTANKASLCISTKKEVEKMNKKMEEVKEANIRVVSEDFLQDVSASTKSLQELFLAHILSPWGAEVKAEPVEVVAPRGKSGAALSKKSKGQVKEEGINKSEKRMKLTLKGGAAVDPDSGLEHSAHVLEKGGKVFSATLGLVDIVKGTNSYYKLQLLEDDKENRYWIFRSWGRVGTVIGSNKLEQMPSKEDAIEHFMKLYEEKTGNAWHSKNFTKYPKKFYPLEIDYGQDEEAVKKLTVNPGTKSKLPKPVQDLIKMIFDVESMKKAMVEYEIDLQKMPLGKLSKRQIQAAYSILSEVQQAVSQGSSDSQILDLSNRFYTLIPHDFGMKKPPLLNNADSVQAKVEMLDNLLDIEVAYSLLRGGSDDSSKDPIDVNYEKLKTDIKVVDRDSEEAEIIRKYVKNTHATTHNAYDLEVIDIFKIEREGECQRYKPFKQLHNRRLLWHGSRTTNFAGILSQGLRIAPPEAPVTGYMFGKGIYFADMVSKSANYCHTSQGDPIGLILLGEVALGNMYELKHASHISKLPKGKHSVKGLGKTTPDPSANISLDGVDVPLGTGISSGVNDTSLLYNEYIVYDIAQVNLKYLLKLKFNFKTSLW
TIPARP GST-(TEV), sequence (Q7Z3E1 441-657): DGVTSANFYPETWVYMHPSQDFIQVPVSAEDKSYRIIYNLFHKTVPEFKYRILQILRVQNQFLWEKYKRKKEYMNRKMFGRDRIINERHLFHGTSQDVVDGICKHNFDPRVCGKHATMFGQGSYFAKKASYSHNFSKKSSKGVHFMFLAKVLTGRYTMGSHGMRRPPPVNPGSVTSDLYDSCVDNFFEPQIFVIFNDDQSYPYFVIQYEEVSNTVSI

In the case of `C[C@H]1CN(C(=O)[C@H]2C[C@@H](Cc3c[nH]c(=O)c(C(F)(F)F)c3)C2)CCN1c1ncc(C(F)(F)F)cn1` [Example 16, 5-{[(1R,3s)-3-{(3S)-3-methyl-4-[5-(trifluoromethyl)pyrimidin-2-yl]piperazine-1-carbonyl}cyclobutyl]methyl}-3-(trifluoromethyl)pyridin-2(1H)-one], the IC50 (usually the concentration needed to halve the response being measured) on TIPARP GST-(TEV) was 3.34 nM; on PARP1 GST it was 1160 nM. Further, the “PARP1/TIPARP IC50 Ratio” value at TIPARP GST-(TEV) was found to be 347. In addition, the EC50 in the assay with NCI-H1373 cells came out at 19.1 nM; in the assay on DLD-1 parent cells, 15.2 µM; with DLD-1 BRCA2 (−/−) cells, 997 nM.
In the case of `C[C@H]1CN(c2ncc(C(F)(F)F)cn2)CCN1C(=O)[C@H]1C[C@@H](Cc2c[nH]c(=O)c(C(F)(F)F)c2)C1` [Example 17, 5-{[(1R,3s)-3-{(2S)-2-methyl-4-[5-(trifluoromethyl)pyrimidin-2-yl]piperazine-1-carbonyl}cyclobutyl]methyl}-3-(trifluoromethyl)pyridin-2(1H)-one], the figures for the 50% inhibitory concentration (IC50) on TIPARP GST-(TEV) and on PARP1 GST were 5 nM and 206 nM, respectively. Besides, the “PARP1/TIPARP IC50 Ratio” value on TIPARP GST-(TEV) was 41.2. Also, the EC50 in the assay with NCI-H1373 cells is 34.1 nM; with DLD-1 parent cells, 9.75 µM; with DLD-1 BRCA2 (−/−) cells it was 217 nM.
Turning to `C[C@@H]1CN(C(=O)[C@H]2C[C@@H](Cc3c[nH]c(=O)c(C(F)(F)F)c3)C2)CCN1c1ncc(C(C)(C)O)cn1` [Example 18, 5-{[(1S,3s)-3-{(3R)-4-[5-(2-hydroxypropan-2-yl)pyrimidin-2-yl]-3-methylpiperazine-1-carbonyl}cyclobutyl]methyl}-3-(trifluoromethyl)pyridin-2(1H)-one], the 50% inhibitory concentration (IC50) on TIPARP GST-(TEV) is 5.86 nM; at PARP1 GST it was 871 nM. Also, on TIPARP GST-(TEV), the “PARP1/TIPARP IC50 Ratio” value came out at 149. Also, the EC50 in the assay on NCI-H1373 cells came out at 66.7 nM; in the assay on DLD-1 parent cells, 12 µM; with DLD-1 BRCA2 (−/−) cells, 1050 nM.
As for `C[C@@H]1CN(c2ncc(C(C)(C)O)cn2)CCN1C(=O)[C@H]1C[C@@H](Cc2c[nH]c(=O)c(C(F)(F)F)c2)C1` [Example 19, 5-{[(1S,3s)-3-{(2R)-4-[5-(2-hydroxypropan-2-yl)pyrimidin-2-yl]-2-methylpiperazine-1-carbonyl}cyclobutyl]methyl}-3-(trifluoromethyl)pyridin-2(1H)-one], the values for the half-maximal inhibitory concentration (IC50) on TIPARP GST-(TEV) and on PARP1 GST were 5.79 nM and 6750 nM, respectively. Also, on TIPARP GST-(TEV), the “PARP1/TIPARP IC50 Ratio” value came out at 1170. In addition, the results for the EC50 in the assay with NCI-H1373 cells, in the assay with DLD-1 parent cells and in the assay with DLD-1 BRCA2 (−/−) cells were 71.2 nM, above 30 µM and 18300 nM, respectively.
As to `C[C@H]1CN(C(=O)[C@H]2C[C@@H](Cc3c[nH]c(=O)c(C(F)(F)F)c3)C2)CCN1c1ncc(C(C)(C)O)cn1` [Example 20, 5-{[(1R,3s)-3-{(3S)-4-[5-(2-hydroxypropan-2-yl)pyrimidin-2-yl]-3-methylpiperazine-1-carbonyl}cyclobutyl]methyl}-3-(trifluoromethyl)pyridin-2(1H)-one], the IC50 at TIPARP GST-(TEV) turned out to be 6.95 nM; on PARP1 GST it was 2130 nM. Also, the “PARP1/TIPARP IC50 Ratio” value at TIPARP GST-(TEV) was determined as 306. The EC50 with NCI-H1373 cells is 81.7 nM; in the assay on DLD-1 parent cells, above 30 µM; with DLD-1 BRCA2 (−/−) cells, 3000 nM.
For `C[C@H]1CN(c2ncc(C(C)(C)O)cn2)CCN1C(=O)[C@H]1C[C@@H](Cc2c[nH]c(=O)c(C(F)(F)F)c2)C1` [Example 21, 5-{[(1R,3s)-3-{(2S)-4-[5-(2-hydroxypropan-2-yl)pyrimidin-2-yl]-2-methylpiperazine-1-carbonyl}cyclobutyl]methyl}-3-(trifluoromethyl)pyridin-2(1H)-one], the IC50 on TIPARP GST-(TEV) came out at 12.9 nM; on PARP1 GST, 331 nM. Further, the “PARP1/TIPARP IC50 Ratio” value at TIPARP GST-(TEV) came to 25.7. Besides, the values for the EC50 with NCI-H1373 cells, in the assay on DLD-1 parent cells and in the assay with DLD-1 BRCA2 (−/−) cells were 160 nM, above 30 µM and 1060 nM, respectively.
On to `C[C@@H]1CN(C(=O)[C@H]2C[C@@H](Cc3c[nH]c(=O)c(C(F)(F)F)c3)C2)C[C@H](C)N1c1ncc(C(C)(C)O)cn1` [Example 22, 5-{[(1s,3s)-3-{(3R,5S)-4-[5-(2-hydroxypropan-2-yl)pyrimidin-2-yl]-3,5-dimethylpiperazine-1-carbonyl}cyclobutyl]methyl}-3-(trifluoromethyl)pyridin-2(1H)-one], for which the IC50 was determined as 2.8 nM at TIPARP GST-(TEV) and 2730 nM on PARP1 GST. For the same compound, the “PARP1/TIPARP IC50 Ratio” value on TIPARP GST-(TEV) came to 975. Besides, the figures for the EC50 with NCI-H1373 cells, with DLD-1 parent cells and in the assay with DLD-1 BRCA2 (−/−) cells were 27 nM, above 30 µM and 9190 nM, respectively.
